Measured values as given in ChEMBL document CHEMBL1201862, “PubChem BioAssay data set” (2004).
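How tested: cells in 96-well plates exposed to compound for 48 hours at five concentrations. GI50 marks 50% less growth.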 Activity calls are given as the source filed them. Cut-off read from the data, not from the text of the source: active = GI50 up to about 1.1 µM and inactive = higher.

Assays:
Assay in all cases: growth of human tumour cells (NCI), 48 h
BT-549 = test system: BT-549
CCRF-CEM = test system: CCRF-CEM
COLO 205 = test system: COLO 205
HCT-116 = test system: HCT-116
HL-60 = test system: HL-60
HOP-92 = test system: HOP-92
MCF7 = test system: MCF7
MOLT-4 = test system: MOLT-4
NCI-H23 = test system: NCI-H23
NCI-H522 = test system: NCI-H522
OVCAR-3 = test system: OVCAR-3
OVCAR-8 = test system: OVCAR-8
RXF 393 = test system: RXF 393
SN12C = test system: SN12C
SNB-19 = test system: SNB-19
SNB-75 = test system: SNB-75
SR = test system: SR
T47D = test system: T47D
TK-10 = test system: TK-10

O=c1c2ccccc2nc(Nc2cccc(Cl)c2)n1/N=C/C=C/c1ccccc1
GI50 (BT-549): > 100 µM (inactive)
GI50 (CCRF-CEM): > 100 µM (inactive)
GI50 (COLO 205): > 100 µM (inactive)
GI50 (HCT-116): 60.4 µM (inactive)
GI50 (HL-60): > 100 µM (inactive)
GI50 (HOP-92): 91.2 µM (inactive)
GI50 (MCF7): 26.3 µM (inactive)
GI50 (MOLT-4): > 100 µM (inactive)
GI50 (NCI-H23): 71.9 µM (inactive)
GI50 (NCI-H522): 50.5 µM (inactive)
GI50 (OVCAR-3): 73.1 µM (inactive)
GI50 (OVCAR-8): 39.2 µM (inactive)
GI50 (RXF 393): > 100 µM (inactive)
GI50 (SN12C): 52.6 µM (inactive)
GI50 (SNB-19): 47.2 µM (inactive)
GI50 (SNB-75): 45.4 µM (inactive)
GI50 (SR): 29.6 µM (inactive)
GI50 (T47D): 64.9 µM (inactive)
GI50 (TK-10): > 100 µM (inactive)

CO[C@H]1O[C@@H]2CO[C@@H](c3ccccc3)O[C@H]2[C@@H]2CC=CCC[C@]12O
GI50 (BT-549): 24.6 µM (inactive)
GI50 (CCRF-CEM): 31 µM (inactive)
GI50 (COLO 205): 48.5 µM (inactive)
GI50 (HCT-116): 30.1 µM (inactive)
GI50 (HL-60): 24.8 µM (inactive)
GI50 (HOP-92): 49.8 µM (inactive)
GI50 (MCF7): 42.6 µM (inactive)
GI50 (MOLT-4): 25.1 µM (inactive)
GI50 (NCI-H23): 36.6 µM (inactive)
GI50 (NCI-H522): 16.5 µM (inactive)
GI50 (OVCAR-3): 69.7 µM (inactive)
GI50 (OVCAR-8): 73.1 µM (inactive)
GI50 (RXF 393): 62.1 µM (inactive)
GI50 (SN12C): 61.8 µM (inactive)
GI50 (SNB-19): > 100 µM (inactive)
GI50 (SNB-75): > 100 µM (inactive)
GI50 (SR): 30.8 µM (inactive)
GI50 (T47D): 94 µM (inactive)
GI50 (TK-10): 93.5 µM (inactive)

C/C=C/C(C#N)(Cc1ccccc1)OP1(=O)OC(c2ccccc2)C(C)N1C (stereo not given)
GI50 (BT-549): 90.2 µM (inactive)
GI50 (CCRF-CEM): 19.4 µM (inactive)
GI50 (COLO 205): > 100 µM (inactive)
GI50 (HCT-116): > 100 µM (inactive)
GI50 (HL-60): 17 µM (inactive)
GI50 (HOP-92): 73.3 µM (inactive)
GI50 (MCF7): 54.2 µM (inactive)
GI50 (MOLT-4): 21.2 µM (inactive)
GI50 (NCI-H23): 87.3 µM (inactive)
GI50 (NCI-H522): 50.1 µM (inactive)
GI50 (OVCAR-3): 56.8 µM (inactive)
GI50 (OVCAR-8): 86.7 µM (inactive)
GI50 (RXF 393): > 100 µM (inactive)
GI50 (SN12C): 81.7 µM (inactive)
GI50 (SNB-19): 78.5 µM (inactive)
GI50 (SNB-75): > 100 µM (inactive)
GI50 (SR): 36 µM (inactive)
GI50 (T47D): 47.9 µM (inactive)
GI50 (TK-10): > 100 µM (inactive)

O=C1CCSc2nc(-c3ccc4c(c3)OCO4)nn21
GI50 (BT-549): > 10 µM (inactive)
GI50 (CCRF-CEM): > 10 µM (inactive)
GI50 (COLO 205): > 10 µM (inactive)
GI50 (HCT-116): > 10 µM (inactive)
GI50 (HL-60): > 10 µM (inactive)
GI50 (HOP-92): > 10 µM (inactive)
GI50 (MCF7): > 10 µM (inactive)
GI50 (MOLT-4): > 10 µM (inactive)
GI50 (NCI-H23): > 10 µM (inactive)
GI50 (NCI-H522): > 10 µM (inactive)
GI50 (OVCAR-3): > 10 µM (inactive)
GI50 (OVCAR-8): > 10 µM (inactive)
GI50 (RXF 393): > 10 µM (inactive)
GI50 (SN12C): > 10 µM (inactive)
GI50 (SNB-19): > 10 µM (inactive)
GI50 (SNB-75): > 10 µM (inactive)
GI50 (SR): > 10 µM (inactive)
GI50 (T47D): > 10 µM (inactive)
GI50 (TK-10): > 10 µM (inactive)

N=C(N)N/N=C/c1c(-c2ccc([N+](=O)[O-])cc2)nc2n1CCS2
GI50 (BT-549): 17.1 µM (inactive)
GI50 (CCRF-CEM): 1.89 µM (inactive)
GI50 (COLO 205): 2.76 µM (inactive)
GI50 (HCT-116): 7.87 µM (inactive)
GI50 (HL-60): 8.36 µM (inactive)
GI50 (HOP-92): 18.4 µM (inactive)
GI50 (MCF7): 6.9 µM (inactive)
GI50 (MOLT-4): 3.24 µM (inactive)
GI50 (NCI-H23): 14.3 µM (inactive)
GI50 (NCI-H522): 10.6 µM (inactive)
GI50 (OVCAR-3): 14.8 µM (inactive)
GI50 (OVCAR-8): 11 µM (inactive)
GI50 (RXF 393): 8.51 µM (inactive)
GI50 (SN12C): 7 µM (inactive)
GI50 (SNB-19): 3.54 µM (inactive)
GI50 (SNB-75): 6.04 µM (inactive)
GI50 (SR): 2.25 µM (inactive)
GI50 (T47D): 5.13 µM (inactive)
GI50 (TK-10): 17.4 µM (inactive)

O=[N+]([O-])c1ccc2c3c1[C@H]1O[C@H]1c1cccc(c1-3)[C@@H]1O[C@H]21
GI50 (BT-549): 1.99 µM (inactive)
GI50 (CCRF-CEM): 1.44 µM (inactive)
GI50 (COLO 205): 2.05 µM (inactive)
GI50 (HCT-116): 1.81 µM (inactive)
GI50 (HL-60): 3.15 µM (inactive)
GI50 (HOP-92): 2.18 µM (inactive)
GI50 (MCF7): 2.11 µM (inactive)
GI50 (MOLT-4): 3.01 µM (inactive)
GI50 (NCI-H23): 1.81 µM (inactive)
GI50 (NCI-H522): 1.67 µM (inactive)
GI50 (OVCAR-3): 2.63 µM (inactive)
GI50 (OVCAR-8): 0.91 µM (active)
GI50 (RXF 393): 1.78 µM (inactive)
GI50 (SN12C): 2.12 µM (inactive)
GI50 (SNB-19): 3.54 µM (inactive)
GI50 (SNB-75): 1.97 µM (inactive)
GI50 (SR): 2.72 µM (inactive)
GI50 (T47D): 2.08 µM (inactive)
GI50 (TK-10): 2.96 µM (inactive)

C=C1C[C@@H]2O[C@H]3[C@H]4[C@@H](C[C@@H](C)[C@@H](OC(C)=O)[C@H]42)[C@@H](C)CO[C@@]3(C)[C@H](OC(C)=O)C[C@H]1O
GI50 (BT-549): 63.4 µM (inactive)
GI50 (CCRF-CEM): 25.9 µM (inactive)
GI50 (COLO 205): 88.1 µM (inactive)
GI50 (HCT-116): > 100 µM (inactive)
GI50 (HL-60): 16.9 µM (inactive)
GI50 (HOP-92): 66.8 µM (inactive)
GI50 (MCF7): 84.5 µM (inactive)
GI50 (MOLT-4): 53 µM (inactive)
GI50 (NCI-H23): > 100 µM (inactive)
GI50 (NCI-H522): 48 µM (inactive)
GI50 (OVCAR-3): 65.2 µM (inactive)
GI50 (OVCAR-8): 82.6 µM (inactive)
GI50 (RXF 393): 38.7 µM (inactive)
GI50 (SN12C): > 100 µM (inactive)
GI50 (SNB-19): > 100 µM (inactive)
GI50 (SNB-75): 84.3 µM (inactive)
GI50 (SR): 43 µM (inactive)
GI50 (T47D): > 100 µM (inactive)
GI50 (TK-10): > 100 µM (inactive)

COC1CCC(OS(C)(=O)=O)C(C)O1 (stereo not given)
GI50 (BT-549): > 10 µM (inactive)
GI50 (CCRF-CEM): > 10 µM (inactive)
GI50 (COLO 205): > 10 µM (inactive)
GI50 (HCT-116): > 10 µM (inactive)
GI50 (HL-60): > 10 µM (inactive)
GI50 (HOP-92): 5.89 µM (inactive)
GI50 (MCF7): > 10 µM (inactive)
GI50 (MOLT-4): > 10 µM (inactive)
GI50 (NCI-H23): > 10 µM (inactive)
GI50 (NCI-H522): > 10 µM (inactive)
GI50 (OVCAR-3): > 10 µM (inactive)
GI50 (OVCAR-8): > 10 µM (inactive)
GI50 (RXF 393): > 10 µM (inactive)
GI50 (SN12C): > 10 µM (inactive)
GI50 (SNB-19): > 10 µM (inactive)
GI50 (SNB-75): > 10 µM (inactive)
GI50 (SR): > 10 µM (inactive)
GI50 (T47D): > 10 µM (inactive)
GI50 (TK-10): > 10 µM (inactive)

CCCC(=O)Nc1cn(COC)c(C(=O)N2C[C@@H]3C[C@]34C2=CC(=O)c2[nH]cc(C)c24)n1
GI50 (BT-549): 7.74 µM (inactive)
GI50 (CCRF-CEM): 1.27 µM (inactive)
GI50 (COLO 205): 7.91 µM (inactive)
GI50 (HCT-116): 7.21 µM (inactive)
GI50 (HL-60): 1.07 µM (active)
GI50 (HOP-92): 9.31 µM (inactive)
GI50 (MCF7): 2.45 µM (inactive)
GI50 (MOLT-4): 0.857 µM (active)
GI50 (NCI-H23): 2.9 µM (inactive)
GI50 (NCI-H522): 3.28 µM (inactive)
GI50 (OVCAR-3): 10.3 µM (inactive)
GI50 (OVCAR-8): 4.23 µM (inactive)
GI50 (RXF 393): 2.57 µM (inactive)
GI50 (SN12C): 11.2 µM (inactive)
GI50 (SNB-19): 18.5 µM (inactive)
GI50 (SNB-75): 10.2 µM (inactive)
GI50 (SR): 0.24 µM (active)
GI50 (T47D): 4.85 µM (inactive)
GI50 (TK-10): 7.96 µM (inactive)

COC1=CC(=O)C2=C(C1=O)[C@H]1CC[C@]3(C)C(=O)CC[C@H]3[C@@H]1CC2
GI50 (BT-549): 19.4 µM (inactive)
GI50 (CCRF-CEM): 3.62 µM (inactive)
GI50 (COLO 205): 39.8 µM (inactive)
GI50 (HCT-116): 18.5 µM (inactive)
GI50 (HL-60): 2.38 µM (inactive)
GI50 (HOP-92): 19.8 µM (inactive)
GI50 (MCF7): 19 µM (inactive)
GI50 (MOLT-4): 4.31 µM (inactive)
GI50 (NCI-H23): 27.1 µM (inactive)
GI50 (NCI-H522): 24.2 µM (inactive)
GI50 (OVCAR-3): 23.3 µM (inactive)
GI50 (OVCAR-8): 18.1 µM (inactive)
GI50 (RXF 393): 28.1 µM (inactive)
GI50 (SN12C): 21.4 µM (inactive)
GI50 (SNB-19): > 100 µM (inactive)
GI50 (SNB-75): > 100 µM (inactive)
GI50 (SR): 34.9 µM (inactive)
GI50 (T47D): 22.8 µM (inactive)
GI50 (TK-10): > 100 µM (inactive)
